Reference: ChEMBL document CHEMBL1137320, “A novel class of carbonic anhydrase inhibitors: glycoconjugate benzene sulfonamides prepared by "click-tailing"” (J Med Chem, 2006)

Molecular target: Carbonic anhydrase 9 (Homo sapiens, UniProt Q16790)

How did the Ki turn out when `CC(=O)N[C@@H]1[C@@H](OC(C)=O)[C@H](OC(C)=O)[C@@H](COC(C)=O)O[C@H]1n1cc(COC(=O)c2ccc(S(N)(=O)=O)cc2)nn1` was run?
Its Ki is 1.2 µM.

`CC(=O)OC[C@H]1O[C@@H](n2cc(COC(=O)c3ccc(S(N)(=O)=O)cc3)nn2)[C@H](OC(C)=O)[C@@H](OC(C)=O)[C@@H]1O[C@H]1O[C@H](COC(C)=O)[C@@H](OC(C)=O)[C@H](OC(C)=O)[C@H]1OC(C)=O` was tested. Which Ki did it give?
The Ki was 0.13 µM.

`NS(=O)(=O)c1ccc(C(=O)OCc2cn([C@@H]3O[C@H](CO)[C@H](O)[C@H](O)[C@H]3O)nn2)cc1` was tested. Which Ki did it give?
Its Ki is 0.065 µM.

`NS(=O)(=O)c1ccc(C(=O)OCc2cn([C@@H]3O[C@H](CO)[C@@H](O)[C@H](O)[C@H]3O)nn2)cc1` was tested. Which Ki did it give?
Its Ki is 0.183 µM.

Which Ki does the source give for `CC(=O)OC[C@H]1O[C@@H](n2cc(CNC(=O)c3ccc(S(N)(=O)=O)cc3)nn2)[C@H](OC(C)=O)[C@@H](OC(C)=O)[C@H]1OC(C)=O` here?
The Ki was 0.076 µM.

With `NS(=O)(=O)c1ccc(C(=O)OCc2cn([C@@H]3OC[C@@H](O)[C@@H](O)[C@@H]3O)nn2)cc1` as the molecule, how does the Ki read?
Its Ki is 0.096 µM.

Which Ki does the source give for `COC(=O)[C@H]1O[C@@H](n2cc(COC(=O)c3ccc(S(N)(=O)=O)cc3)nn2)[C@H](O)[C@@H](O)[C@@H]1O` here?
Its Ki is 0.241 µM.

For `COC(=O)[C@H]1O[C@@H](n2cc(CNC(=O)c3ccc(S(N)(=O)=O)cc3)nn2)[C@H](OC(C)=O)[C@@H](OC(C)=O)[C@@H]1OC(C)=O`, which Ki is on record?
The Ki was 0.471 µM.

For `C#CCOC(=O)c1ccc(S(N)(=O)=O)cc1`, which Ki is on record?
The Ki was 0.104 µM.

For `CO[C@H]1O[C@H](Cn2cc(CNC(=O)c3ccc(S(N)(=O)=O)cc3)nn2)[C@@H](O)[C@H](O)[C@H]1O`, which Ki is on record?
Its Ki is 0.204 µM.

How did the Ki turn out when `CC(=O)OC[C@H]1O[C@@H](n2cc(CNC(=O)c3ccc(S(N)(=O)=O)cc3)nn2)[C@H](OC(C)=O)[C@@H](OC(C)=O)[C@@H]1OC(C)=O` was run?
Its Ki is 0.43 µM.

Which Ki does the source give for `NS(=O)(=O)c1ccc(C(=O)NCc2cn([C@@H]3O[C@H](CO)[C@@H](O)[C@H](O)[C@H]3O)nn2)cc1` here?
The Ki was 0.442 µM.
